This note sets out measurements from ChEMBL document CHEMBL4622990, “Synthesis and Antitumor Activity of C-7-Alkynylated and Arylated Pyrrolotriazine C-Ribonucleosides” (ACS Med Chem Lett, 2020).

The pIC50 is −log10 of the IC50, conventionally taken in molar units.

pIC50: −log10 of the molar value. Calls of active or inactive are those of the source. No cut-off for these calls is given here.

One test concerns HL-60. Description: Antiproliferative activity against human HL60 cells assessed as reduction in cell viability incubated for 72 hrs by IncuCyte live-cell imaging assay. The note with it: HL-60, 72 h. Format: functional, cell-based.
The nature of test [1]: Antiproliferative activity against human DND41 cells assessed as reduction in cell viability incubated for 72 hrs by IncuCyte live-cell imaging assay. To be noted: DND41, 72 h. Format: functional, cell-based.
Test [2] relates to HEp-2. In words: Induction of DNA damage in human Hep2 cells assessed as gamma-H2AX positive cells at 100 uM after 24 hrs by DAPI staining based immunofluorescence analysis (reference value: 0.51%). Type of test: functional.
The test system of test [3] is HEp-2. In words: Induction of DNA damage in human Hep2 cells assessed as gamma-H2AX positive cells at 1 uM after 24 hrs by DAPI staining based immunofluorescence analysis relative to control. Type of test: functional.
Another test addresses Tubulin (Homo sapiens) (UniProt P68371+Q9H4B7+P0DPH7+P68366+Q13509+Q71U36+P04350+Q3ZCM7+P07437+P68363+Q9BQE3+Q6PEY2+Q13885+Q9BVA1+Q9BUF5). Description: Inhibition of tubulin polymerization in human Hep2 cells at 100 uM after 3 hrs by DAPI-staining based fluorescence microscopic assay. The note with it: HEp-2. Type of test: cell-based.
Test [4] deals with CAPAN-1. Description: Antiproliferative activity against human Capan1 cells assessed as reduction in cell viability incubated for 72 hrs by IncuCyte live-cell imaging assay. To be noted: CAPAN-1, 72 h. Type of test: functional, cell-based.
For the next test, the system named is Salmon testes DNA. In words: Binding affinity to salmon sperm DNA assessed as DNA intercalation at 20 uM incubated for 20 mins by acridine orange orange dye based fluorescence polarization assay. Format: nucleic-acid assay. The note with it: Salmonidae. A general note: In fluorescence polarisation assays a small probe gives low polarisation when free and higher when bound to something large.

Another test deals with PBMC. Description: Induction of apoptosis in human PBMC assessed as caspase 3/7 activation incubated for 72 hrs and measured at 3 hrs interval by IncuCyte Caspase 3/7 Green reagent based assay. Format: cell-based.
For the next test, the system named is Z-138. In words: Antiproliferative activity against human Z138 cells assessed as reduction in cell viability incubated for 72 hrs by IncuCyte live-cell imaging assay. Type of test: functional, cell-based. To be noted: Z-138, 72 h.
Test [5] relates to HEp-2. In words: Induction of DNA damage in human Hep2 cells assessed as increase in gamma-H2AX positive cells after 24 hrs by DAPI staining based immunofluorescence analysis. Format: functional, cell-based.
Test [6] relates to HEp-2. In words: Induction of DNA damage in human Hep2 cells assessed as gamma-H2AX positive cells at 10 uM after 24 hrs by DAPI staining based immunofluorescence analysis relative to control. Type of test: functional.
For the next test, the system named is LN-229. Description: Antiproliferative activity against human LN229 cells assessed as reduction in cell viability incubated for 72 hrs by IncuCyte live-cell imaging assay. Type of test: functional, cell-based. The note with it: LN-229, 72 h.
In the next test the test system is K562. In words: Antiproliferative activity against human K562 cells assessed as reduction in cell viability incubated for 72 hrs by IncuCyte live-cell imaging assay. Type of test: functional, cell-based. To be noted: K562, 72 h.
A further test relates to HCT-116. Description: Antiproliferative activity against human HCT116 cells assessed as reduction in cell viability incubated for 72 hrs by IncuCyte live-cell imaging assay. Type of test: functional, cell-based. The note with it: HCT-116, 72 h.
In another test the test system is NCI-H460. In words: Antiproliferative activity against human NCI-H460 cells assessed as reduction in cell viability incubated for 72 hrs by IncuCyte live-cell imaging assay. Type of test: functional, cell-based. To be noted: NCI-H460, 72 h.
Test [7] deals with CAPAN-1. Description: Induction of apoptosis in human Capan1 cells assessed as increase in apoptotic cells incubated for 72 hrs and measured at 3 hrs interval by IncuCyte Caspase 3/7 Green reagent based assay. Format: functional, cell-based.

Consider `CCCC#Cc1cc([C@@H]2O[C@H](CO)[C@@H](O)[C@H]2O)n2ncnc(N)c12`, for which the pIC50 is 6.70 in the test on HL-60; 7.10 in test [1]; 7.70 in the test with CAPAN-1 [4]; 4.96 to 7.30 in the test with PBMC; 7.70 in the test with Z-138; 7.40 in the test with LN-229. The negative logarithm of the IC50 (pIC50) with K562 is 5.96; in the test with HCT-116, 6.70; in the test with NCI-H460, 6.40. The Activity was 9.38% with HEp-2 [2], 1.14% in the test with HEp-2 [3], “Dose-dependent effect” in the test with HEp-2 [5] and 0.82% in the test with HEp-2 [6]. Moreover, the inhibition entry at Tubulin (Homo sapiens) is “Active”. Besides, in the test with Salmon testes DNA, the result was Active.
Take `Nc1ncnn2c([C@@H]3O[C@H](CO)[C@@H](O)[C@H]3O)cc(C#CC3CC3)c12`: the negative-log IC50 (pIC50) is 7.40 with HL-60; 7.40 in test [1]; 7.70 in the test on CAPAN-1 [4]; 6.40 to 7.00 in the test on PBMC; 7.70 with Z-138; 7.52 with LN-229. Besides, the pIC50 was 7.40 in the test with K562, 7.30 in the test on HCT-116 and 7.10 in the test with NCI-H460. Besides, the result in the test with CAPAN-1 [7] and with Salmon testes DNA was Active. Besides, the Activity in the test with HEp-2 [2] is 16.22%; in the test on HEp-2 [3], 3.22%; in the test with HEp-2 [5], “Dose-dependent effect”; in the test on HEp-2 [6], 5.2%. Further, the inhibition entry on Tubulin (Homo sapiens) is “Active”.
